Strand notation (5' to 3'): a small letter for the sugar, then the base; units joined by * are phosphorothioate-linked, units joined directly phosphodiester-linked; [ ] holds rarer units or linkages, { } end groups; capitals alone tell only the bases. k = constrained ethyl (cEt); [5mC] = 5-methylcytosine; d = 2'-deoxy (DNA)

The source of these data is US10517889B2, “Modulators of SMAD7 expression” (Ionis Pharmaceuticals, Inc., priority 2017, dated 2019).

The series concerns human SMAD7 mRNA. The experiment in a line: Antisense inhibition of human SMAD7 mRNA expression in Hep3B cells by 3-10-3 cEt gapmers, 10,000 nM, electroporation (Example 2). It is filed as cell-based. The note with it: approximately 24 hours. The essentials: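 Percent inhibition of SMAD7 mRNA, relative to untreated cells, after ~24 h exposure of electroporated Hep3B cells to 10,000 nM cEt gapmer; levels by qRT-PCR, corrected for total RNA.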

Where [1] appears, read: Hep3B cells, electroporation with 10,000 nM antisense oligonucleotide, primer probe set RTS5062, relative to untreated control cells.
Setting [2] is: Hep3B cells, electroporation with 10,000 nM antisense oligonucleotide, SMAD7 mRNA by RT-PCR (RTS5062), relative to untreated control cells.
Setting [3] is: Hep3B cells, electroporation, 10,000 nM antisense oligonucleotide, RTS5062, relative to untreated control cells.
[4] abbreviates: SMAD7 mRNA, Hep3B cells, 10,000 nM antisense oligonucleotide, electroporation, primer probe set RTS5062, relative to untreated control cells.
Where [5] appears, read: SMAD7 mRNA, Hep3B cells, electroporation with 10,000 nM antisense oligonucleotide, primer probe set RTS5062, relative to untreated control cells.
[6] abbreviates: Hep3B cells, electroporation with 10,000 nM antisense oligonucleotide, RTS5062, percent inhibition of SMAD7 mRNA relative to untreated control cells.
The mark [7] stands for this setting: Hep3B cells, 10,000 nM antisense oligonucleotide, electroporation, RT-PCR primer probe set RTS5062, relative to untreated control cells.

As to “799266 (antisense kG*kG*k[5mC]*d[5mC]*dT*dT*d[5mC]*d[5mC]*dA*dT*d[5mC]*d[5mC]*dA*kA*k[5mC]*kT) [compound 799266]”, the “% inhibition of SMAD7 mRNA expression” value under setting [1] is given as 37%.

One may read the % Inhibition as the change of the read-out against control, counted positive when it falls. A high value points to a strong effect. Take “799376 (antisense kG*k[5mC]*kA*dG*dG*dA*dG*dG*dA*dA*d[5mC]*d[5mC]*dT*kA*k[5mC]*k[5mC]) [compound 799376]”: the “% Inhibition” value under setting [2] was 45%. Consider “799112 (antisense kG*kG*kG*dA*dG*d[5mC]*dA*dG*dG*d[5mC]*dA*dG*dT*kG*k[5mC]*kT) [compound 799112]”, for which the “% inhibition of SMAD7 mRNA expression” value under setting [1] is on record as 58%.

Regarding “799385 (antisense kT*kG*k[5mC]*d[5mC]*d[5mC]*dA*dA*d[5mC]*d[5mC]*d[5mC]*dT*dT*d[5mC]*kA*k[5mC]*kT) [compound 799385]”, the “% inhibition of SMAD7 mRNA expression” value under setting [1] is listed as 31%. Regarding “799634 (k[5mC]*kA*kG*dA*d[5mC]*dT*dG*d[5mC]*d[5mC]*dA*dA*dA*dT*k[5mC]*kA*k[5mC]; antisense) [compound 799634]”, under setting [3], the “% inhibition of SMAD7 mRNA expression” value was found to be 23%.

In the case of “830081 (kG*kT*kG*dT*dA*dT*dA*d[5mC]*d[5mC]*d[5mC]*dT*dG*d[5mC]*kA*k[5mC]*kT; antisense) [compound 830081]”, under setting [2], the “% Inhibition” value worked out at 0%.

Regarding “829744 (antisense kA*k[5mC]*kG*dG*d[5mC]*dT*d[5mC]*d[5mC]*dT*d[5mC]*d[5mC]*dA*dG*kA*kG*kA) [compound 829744]”, the “% Inhibition” value under setting [4] is 39%. Consider “799008 (k[5mC]*k[5mC]*kA*dT*d[5mC]*dT*dG*d[5mC]*d[5mC]*dG*d[5mC]*dT*d[5mC]*k[5mC]*kT*kG; antisense) [compound 799008]”, for which, under setting [1], the “% inhibition of SMAD7 mRNA expression” value is 60%. Turning to “830012 (antisense kG*k[5mC]*k[5mC]*dA*dG*dT*d[5mC]*dT*d[5mC]*dA*dA*dA*dT*kG*kG*kG) [compound 830012]”, the “% Inhibition” value under setting [5] was 37%. On to “830123 (antisense kG*kG*k[5mC]*dA*d[5mC]*d[5mC]*dA*d[5mC]*dA*dT*dT*dT*dT*k[5mC]*kA*k[5mC]) [compound 830123]”, for which the “% Inhibition” value under setting [2] came out at 44%.

Regarding “829899 (antisense kA*k[5mC]*kG*dG*dG*d[5mC]*dA*dG*d[5mC]*dT*dG*d[5mC]*dT*kG*kA*kT) [compound 829899]”, under setting [5], the “% Inhibition” value is on record as 20%.

Consider “798688 (antisense kG*kT*k[5mC]*d[5mC]*dT*dG*dA*dA*d[5mC]*dA*dT*dG*d[5mC]*kG*kG*kG) [compound 798688]”, for which the “% inhibition of SMAD7 mRNA expression” value under setting [1] is on record as 68%. For “830086 (kT*kT*kT*dA*d[5mC]*dA*dG*dG*dA*dT*dA*d[5mC]*dA*k[5mC]*kT*kT; antisense) [compound 830086]”, the “% Inhibition” value under setting [2] was 40%. Regarding “799717 (antisense kG*k[5mC]*kA*dG*dG*d[5mC]*dT*dA*d[5mC]*d[5mC]*dA*dG*d[5mC]*k[5mC]*kT*kT) [compound 799717]”, under setting [3], the “% inhibition of SMAD7 mRNA expression” value is on record as 0%. For “798772 (k[5mC]*kT*kT*d[5mC]*d[5mC]*dG*dA*dG*dG*dA*dA*dT*dG*k[5mC]*k[5mC]*kT; antisense) [compound 798772]”, the “% Inhibition” value under setting [2] is on record as 48%. As for “800044 (k[5mC]*k[5mC]*kT*dG*dA*dG*dA*dT*d[5mC]*dG*dA*dG*dG*kT*kG*k[5mC]; antisense) [compound 800044]”, the “% Inhibition” value under setting [2] worked out at 18%. “799844 (antisense kA*kG*kA*dG*dG*dA*dG*dG*dA*dG*dG*d[5mC]*dA*kA*kA*kT) [compound 799844]”: under setting [6], the “% Inhibition” value is on record as 11%.

In the case of “829725 (antisense k[5mC]*k[5mC]*kG*dT*dG*dG*d[5mC]*dA*dT*dG*d[5mC]*dG*d[5mC]*k[5mC]*kA*kG) [compound 829725]”, under setting [4], the “% Inhibition” value came out at 41%. As for “799234 (kA*kA*kA*d[5mC]*dA*dT*dT*d[5mC]*dA*dG*d[5mC]*dT*dA*kG*kG*kT; antisense) [compound 799234]”, the “% inhibition of SMAD7 mRNA expression” value under setting [1] came to 13%. With “829770 (antisense k[5mC]*kA*kG*dT*d[5mC]*d[5mC]*dA*dG*dG*d[5mC]*dG*dG*d[5mC]*k[5mC]*kG*kG) [compound 829770]”, the “% Inhibition” value under setting [4] came out at 42%.

As for “798975 (antisense kT*k[5mC]*k[5mC]*d[5mC]*d[5mC]*dT*d[5mC]*dT*dT*d[5mC]*d[5mC]*dT*dA*kT*k[5mC]*kA) [compound 798975]”, the “% Inhibition” value under setting [1] is 47%. In the case of “829755 (antisense kT*kT*k[5mC]*dT*d[5mC]*d[5mC]*d[5mC]*d[5mC]*dG*d[5mC]*dA*dG*d[5mC]*kT*k[5mC]*kG) [compound 829755]”, the “% Inhibition” value under setting [4] turned out to be 52%. On to “799973 (kA*kT*kA*dA*dT*dT*d[5mC]*dA*d[5mC]*dA*dA*dG*dG*kA*k[5mC]*k[5mC]; antisense) [compound 799973]”, for which, under setting [7], the “% Inhibition” value stood at 0%. As to “798983 (antisense k[5mC]*k[5mC]*k[5mC]*d[5mC]*dT*dT*d[5mC]*dA*dT*dA*d[5mC]*dA*d[5mC]*kT*kG*kT) [compound 798983]”, the “% inhibition of SMAD7 mRNA expression” value under setting [1] was 0%. For the substance “829919 (antisense k[5mC]*kG*kA*dG*dT*dG*dT*dA*dT*dG*dA*dG*dT*kT*kG*kT) [compound 829919]”, under setting [5], the “% Inhibition” value was 47%. As to “799559 (kA*kG*k[5mC]*dT*dT*d[5mC]*dT*dA*dT*dT*d[5mC]*dG*dA*kG*k[5mC]*kT; antisense) [compound 799559]”, the “% inhibition of SMAD7 mRNA expression” value under setting [3] is given as 37%. In the case of “829990 (kG*kG*kG*d[5mC]*d[5mC]*dG*d[5mC]*dG*dA*dG*dG*d[5mC]*dG*kG*kT*kG; antisense) [compound 829990]”, under setting [5], the “% Inhibition” value came to 35%. Consider “799175 (antisense kT*kA*kA*dA*dG*dT*d[5mC]*dT*dA*dA*dA*d[5mC]*dA*kT*kG*k[5mC]) [compound 799175]”, for which the “% Inhibition” value under setting [1] came out at 0%. Consider “799463 (antisense kT*kG*kG*dT*dA*dA*dG*d[5mC]*dA*d[5mC]*dT*dA*dG*kG*kT*kT) [compound 799463]”, for which, under setting [1], the “% inhibition of SMAD7 mRNA expression” value is given as 33%. For the substance “830073 (kT*k[5mC]*kA*dG*dA*dT*d[5mC]*dA*dA*dA*dG*dG*dT*kA*kA*kG; antisense) [compound 830073]”, the “% Inhibition” value under setting [2] was found to be 41%. With “829876 (antisense k[5mC]*k[5mC]*kG*dG*dG*dT*dT*dG*dT*d[5mC]*d[5mC]*dA*dG*kT*kG*kT) [compound 829876]”, the “% Inhibition” value under setting [5] was 30%.

Turning to “799128 (antisense k[5mC]*k[5mC]*k[5mC]*dA*dG*dG*dG*dA*d[5mC]*dA*dT*d[5mC]*d[5mC]*k[5mC]*k[5mC]*kG) [compound 799128]”, under setting [1], the “% inhibition of SMAD7 mRNA expression” value stood at 63%. On to “798816 (k[5mC]*k[5mC]*kA*d[5mC]*dG*d[5mC]*dA*d[5mC]*d[5mC]*dA*dG*dT*dG*kT*kG*kA; antisense) [compound 798816]”, for which the “% Inhibition” value under setting [2] turned out to be 24%.

“799678 (antisense k[5mC]*kA*k[5mC]*dA*dA*dG*d[5mC]*dA*d[5mC]*d[5mC]*dT*dG*dT*k[5mC]*k[5mC]*kA) [compound 799678]”: the “% inhibition of SMAD7 mRNA expression” value under setting [3] came to 0%. For “799896 (antisense k[5mC]*kT*kT*dA*d[5mC]*d[5mC]*dT*d[5mC]*dA*d[5mC]*d[5mC]*d[5mC]*dA*k[5mC]*k[5mC]*kT) [compound 799896]”, under setting [7], the “% Inhibition” value worked out at 36%. Regarding “799019 (kA*k[5mC]*kT*dG*d[5mC]*dA*dA*dA*d[5mC]*d[5mC]*dT*d[5mC]*dT*k[5mC]*kT*kG; antisense) [compound 799019]”, the “% Inhibition” value under setting [1] was determined as 36%. Regarding “799737 (antisense k[5mC]*kT*kT*dA*dG*dA*dG*dT*dA*dT*dA*dA*dA*kT*kA*k[5mC]) [compound 799737]”, under setting [3], the “% inhibition of SMAD7 mRNA expression” value is reported as 5%.

“799395 (antisense kT*kT*kA*d[5mC]*dA*dA*dA*dT*dA*d[5mC]*dA*dG*dA*kG*kA*kG) [compound 799395]”: the “% Inhibition” value under setting [2] is listed as 62%. For the substance “772592 (k[5mC]*kA*k[5mC]*d[5mC]*dA*dG*dT*dG*dT*dG*dA*d[5mC]*d[5mC]*kG*kA*kT; antisense) [compound 772592]”, the “% Inhibition” value under setting [4] came out at 24%. On to “799971 (kG*kT*kA*dA*dA*dA*d[5mC]*dT*dT*dG*d[5mC]*dT*dG*kA*kG*kA; antisense) [compound 799971]”, for which the “% Inhibition” value under setting [7] is listed as 31%. Regarding “800033 (k[5mC]*kA*k[5mC]*dT*dA*d[5mC]*dA*dG*dA*dG*dA*dT*dT*k[5mC]*k[5mC]*k[5mC]; antisense) [compound 800033]”, the “% Inhibition” value under setting [7] is 52%.

Consider “798672 (antisense kG*kG*k[5mC]*dA*dG*dG*dA*dG*d[5mC]*dG*dG*d[5mC]*dG*kG*k[5mC]*kG) [compound 798672]”, for which the “% inhibition of SMAD7 mRNA expression” value under setting [1] was found to be 6%. Consider “799236 (kT*kA*kA*dA*d[5mC]*dT*d[5mC]*d[5mC]*dT*dT*dT*dA*dG*kA*kA*kA; antisense) [compound 799236]”, for which the “% Inhibition” value under setting [1] is on record as 45%. On to “798885 (kG*k[5mC]*kA*d[5mC]*dG*dG*dT*dA*dA*dA*dG*d[5mC]*d[5mC]*k[5mC]*kG*kT; antisense) [compound 798885]”, for which the “% Inhibition” value under setting [2] turned out to be 43%.

In the case of “799274 (antisense kT*kT*kA*dA*dT*d[5mC]*dA*dT*dT*dA*d[5mC]*dT*d[5mC]*kG*kA*kG) [compound 799274]”, under setting [6], the “% Inhibition” value came to 24%.

With “799528 (k[5mC]*kG*kG*dA*dT*dA*d[5mC]*d[5mC]*dA*dG*dG*dT*dG*kG*kT*kT; antisense) [compound 799528]”, the “% Inhibition” value under setting [6] is recorded as 17%.
